# In ChEMBL document CHEMBL4627407, “Identification of a Potent Oridonin Analogue for Treatment of Triple-Negative Breast Cancer” (J Med Chem, 2020):
# The source made the active and inactive calls. The rule behind the calls is not given here.
# Assays:
# [1] = Toxicity in ICR mouse assessed as induction of morphological changes in spleen at 25 mg/kg, iv administered once per day for 23 consecutive days; assay type: organism-based; conditions: in vivo
# HCC1806 [2] = experiment: Induction of cell cycle arrest in human HCC1806 cells assessed as increase in accumulation at G2/M phase after 48 hrs by propidium iodide staining based FACScan flow cytometry; assay type: functional
# HCC1806 [3] = experiment: Induction of apoptosis in human HCC1806 cells assessed as late apoptotic cells at 50 uM after 48 hrs by Annexin V-FITC/propidium iodide double staining based flow cytometry (reference value: 0.81%); assay type: functional
# HCC1806 [4] = experiment: Antitumor activity against human HCC1806 cells harboring luciferase gene xenografted in ICR mouse assessed as shrunken tumor tissue at 12.5 to 25 mg/kg, iv administered once daily for 21 consecutive days and measured once every week; assay type: functional, organism-based
# HCC1806 [5] = experiment: Antimigratory activity in human HCC1806 cells assessed as reduction in integrin beta1 level after 48 hrs by Western blot analysis; assay type: functional, cell-based
structure (smiles),measurement,setting,value
C=C1C(=O)[C@@]23C(=O)[C@@H]4OC[C@]5(C=CCC(C)(C)[C@@H]45)[C@@H]2CC[C@@H]1[C@H]3OC(=O)/C=C/c1ccncc1,Activity,[1],Non-Toxic
same,Activity,HCC1806 [2],Dose-dependent effect
same,Activity,HCC1806 [3],2.43%
same,Activity,HCC1806 [4],Active
same,Activity,HCC1806 [5],Dose-dependent effect
